Source: publication PMC5866590 (Proceedings of the National Academy of Sciences of the …, 2018)
Like-named read-outs stand apart in the source and are kept apart here. One block for each compound: values may come before it.

Target: T1, FmlHLD (Escherichia coli, UniProt Q1RBS0)
T1 sequence (Q1RBS0 25-184): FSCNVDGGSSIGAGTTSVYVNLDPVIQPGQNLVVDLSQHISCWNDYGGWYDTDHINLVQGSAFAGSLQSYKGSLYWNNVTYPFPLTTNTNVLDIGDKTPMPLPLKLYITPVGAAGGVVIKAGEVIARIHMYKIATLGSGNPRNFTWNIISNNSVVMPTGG
Type: binding, Escherichia coli (UPEC strain UTI89)
Conditions: for Percent inhibition (PI100) of FmlHLD binding to ds-BSM: mean with SEM in Table S2

[1] = Fig. 1B: 1 mM or 0.1 mM compounds

Inhibition of FmlHLD binding to ds-BSM (in words) (compound at 1 mM): capable of inhibiting FmlHLD
SMILES: CC(=O)N[C@H]1C(O)O[C@H](CO)[C@H](O)[C@@H]1O (mixture of isomers) [GalNAc, N-acetylgalactosamine, reference compound]

Inhibition of FmlHLD binding to ds-BSM (in words) (compound at 100 μM): minor inhibitory activity
SMILES: CC(C)S[C@@H]1O[C@H](CO)[C@H](O)[C@H](O)[C@H]1O [36β-thio, isopropyl β-thiogalactoside, reference compound]

Inhibition of FmlHLD binding to ds-BSM (in words) (compound at 1 mM): capable of inhibiting FmlHLD
SMILES: O=C[C@H](O)[C@@H](O)[C@@H](O)[C@H](O)CO [Gal, galactose, reference compound]

Inhibition of FmlHLD binding to ds-BSM (in words) [1]: incapable of inhibiting FmlHLD
SMILES: OC[C@H]1O[C@@H](O[C@H]2[C@H](O)[C@@H](O)C(O)O[C@@H]2CO)[C@H](O)[C@@H](O)[C@H]1O (stereo partly drawn) [Lac, Gal(β1-4)Glc, reference compound]

Inhibition of FmlHLD binding to ds-BSM (in words) (compound at 1 mM): capable of inhibiting FmlHLD
SMILES: CC(=O)N[C@@H]1[C@@H](O[C@@H]2O[C@H](CO)[C@H](O)[C@H](O)[C@H]2O)[C@@H](O)[C@@H](CO)O[C@@H]1O [TF, Gal(β1-3)GalNAc(α), reference compound]

The remaining lines, values behind:

SMILES: OC[C@H]1O[C@@H](Oc2ccccc2)[C@H](O)[C@@H](O)[C@H]1O [1β, phenyl β-galactoside]
Percent inhibition (PI100) of FmlHLD binding to ds-BSM (compound at 100 μM, 100 µM): 77%

SMILES: O=c1ccc2nc3ccc(O[C@@H]4O[C@H](CO)[C@H](O)[C@H](O)[C@H]4O)cc3oc-2c1 [15β]
Percent inhibition (PI100) of FmlHLD binding to ds-BSM (compound at 100 μM, 100 µM): 80%

SMILES: OC[C@H]1O[C@@H](Oc2cc3c(O)cc(O)cc3[o+]c2-c2ccc(O)c(O)c2)[C@H](O)[C@@H](O)[C@H]1O [24β, cyanidin galactoside]
Percent inhibition (PI100) of FmlHLD binding to ds-BSM (compound at 100 μM, 100 µM): 29%

SMILES: COc1cc(-c2[o+]c3cc(O)cc(O)c3cc2O[C@@H]2O[C@H](CO)[C@H](O)[C@H](O)[C@H]2O)ccc1O [25β]
Percent inhibition (PI100) of FmlHLD binding to ds-BSM (compound at 100 μM): 3.6%

SMILES: O=c1c(O[C@@H]2O[C@H](CO)[C@H](O)[C@H](O)[C@H]2O)c(-c2ccc(O)c(O)c2)oc2cc(O)cc(O)c12 [26β, quercetin galactoside]
Percent inhibition (PI100) of FmlHLD binding to ds-BSM (compound at 100 μM, 100 µM): 14%

SMILES: OC[C@H]1OC(O)[C@H](O)[C@@H](O)[C@@H]1O (stereo partly drawn) [Glc, glucose, reference compound]
Inhibition of FmlHLD binding to ds-BSM (in words) [1]: neither Man nor glucose (Glc) had any detectable effect

SMILES: OC[C@H]1OC(O)[C@@H](O)[C@@H](O)[C@@H]1O (stereo partly drawn) [Man, mannose, reference compound]
Inhibition of FmlHLD binding to ds-BSM (in words) [1]: neither Man nor glucose (Glc) had any detectable effect
